Results published in patent US7968543B2 (priority 2007, dated 2011).
Entries after “also recorded” stand apart in the source; their conditions may differ. Read-outs that look alike come from different tables or passages of the source.

Tests used:
[1] = tested on: subcutaneous MV4-11 tumors
Procedure: Xenograft was initiated from MV4-11 FLT3-dependent human leukemia cells cultured in Iscove's Modified Dulbecco's medium supplemented with 10% heat-inactivated fetal bovine serum, 100 units/mL penicillin G, 100 μg/mL streptomycin sulfate, 0.25 μg/mL amphotericin B, 2 mM glutamine, 0.075% sodium bicarbonate, and 25 μg/mL gentamicin. Tumor cells were maintained in humidified atmosphere of 95% air and 5% CO2 at 37° C. The cells were harvested during logarithmic phase growth and resuspended at a concentration of 5×10^7 cells/mL in 50% Matrigel matrix (BD Biosciences) and 50% PBS. MV4-11 cells (1×10^7) were implanted subcutaneously into the right flank of each test mouse and the growth of tumors was monitored. Twelve days later, on Day 1 of the study, mice were placed in eight groups each consisting of ten mice with individual tumor sizes of 126 to 221 mm^3 and group mean tumor size of 174 mm^3, tumor volume calculated as a product of width×width×length in mm of an MV4-11 tumor. […] Each dose of drug was given in a volume of 0.2 mL per 20 g of body weight (10 mL/kg) and was adjusted for the body weight of the animal. Each animal was sacrificed when its tumor reached the predetermined endpoint size of 1,000 mm^3 or on the last day of the study (Day 59), whichever came first.
In a follow-on study at the 10 mg/kg oral dose, tumor size was monitored for an additional 60 days after dosing was discontinued.

[2] = Ninety-day toxicity study in rats; assay type: in vivo, rat
Procedure: (§1) For rats, the compound was administered at a dose of 1, 3, or 10 mg/kg/day.

[3] = Ninety-day toxicity study in dogs; assay type: in vivo, dog
Procedure: as §1
For dogs, the compound was administered at a dose of 1, 5, or 15 mg/kg/day.

[4] = Phase I clinical trial, safety and tolerability
Text: (§2) The study was open labeled and designed to determine the safety, tolerability, dose limiting toxicity (DLT), pharmacokinetics and pharmacodynamics of escalating doses. […] If two or more patients in the expanded cohort experiences first course DLT, no further patients will enroll at that dose and the next lower dose level will be declared the maximum tolerated dose (MTD). Primary endpoints for the study are safety, tolerability, dose limiting toxicity (DLT), and PK. Secondary endpoint is PD.

[5] = tested on: relapsed or refractory acute myeloid leukemia; details: for Efficacy: Human, by comparison with efficacious exposure in mice
Text: as §2

RS4-11 cell line = details: read-out: IC50 (nM), Proliferation, RS 4, 48 hour incubation
[6] = mouse, in vivo, 1 mg/kg
[7] = in vivo
in vivo = details: mouse, plasma, oral, 1 mg/kg
clinical = details: human, in vivo; for AUC(0-t): SS AUC0-24 (ng * h/mL)
[8] = Mouse oral pharmacokinetics / exposure
[9] = Phase I clinical trial, human oral pharmacokinetics; details: in vivo, 12 mg
[10] = follow-on study, 10 mg/kg oral, monitored 60 days after dosing discontinued, ten animals

CC(C)(C)c1cc(NC(=O)Nc2ccc(-c3cn4c(n3)sc3cc(OCCN5CCOCC5)ccc34)cc2)no1 [compound of Formula I, N-(5-tert-butyl-isoxazol-3-yl)-N′-{4-[7-(2-morpholin-4-yl-ethoxy)imidazo[2,1-b][1,3]benzothiazol-2-yl]phenyl}urea]
tumor response ([1]; 1 mg/kg (3 mg/m^2, p.o., QD)): tumor growth inhibition | tumor response ([1]; 3 mg/kg p.o. QD for 28 days): tumor regression | tumor response ([1]; 10 mg/kg p.o. QD for 28 days): tumor regression | Efficacy ([1]; Mouse, 1 mg/kg): Yes | complete responses [1, 10]: eight | partial responses [1, 10]: two | elevations in liver function tests (LFTS) ([2]; high dose (10 mg/kg/day)): 2- to 3 folds | neutropenia ([2]; high dose (very mild anemia)): Sustained neutropenia | clinical signs ([2]; low and middle doses (1, 3 mg/kg/day), 90 days): No significant clinical signs were observed | AUC at 90 days ([2]; rat, in vivo, 10 mg/kg/day, high dose, read-out: AUC at which LFT elevations were produced): ≥ 30 µM·h | half-life ([2]; rat, in vivo, read-out: terminal half-life (converted)): 5.7 h | AUC ([3]; dog, in vivo, 15 mg/kg/day, high dose, read-out: AUC at which LFT elevations were produced): ≥ 30 µM·h | half-life ([3]; dog, in vivo, read-out: terminal half-life (converted)): 5.9 h | weight gain suppression ([3]; high dose): 10% | elevations in liver function tests (LFTS) ([3]; high dose (15 mg/kg/day)): 3 to 6 folds | neutropenia ([3]; high dose (very mild anemia)): Sustained neutropenia | clinical signs ([3]; low and middle doses (1, 5 mg/kg/day), 90 days): No significant clinical signs were observed | deaths ([4]; Cohorts 1 and 2, one unrelated fungal infection, one congestive heart failure possibly drug related): Two | Grade 1 (mild) drug-related adverse events: instance of cough ([4]; human, in vivo): one | Grade 1 (mild) drug-related adverse events: instance of decreased appetite ([4]; human, in vivo): one | Grade 1 (mild) drug-related adverse events: instance of disgeusia ([4]; human, in vivo): one | Grade 1 (mild) drug-related adverse events: instances of abdominal distension/constipation ([4]; human, in vivo): two | Grade 1 (mild) drug-related adverse events: instances of nausea/vomiting ([4]; human, in vivo): two | dose limiting toxicity (DLT) ([4]; human, in vivo): reported as a DLT | grade of other possibly drug-related AEs ([4]; human, in vivo): ≤ 2 grade | hematological toxicity ([4]; human, in vivo): no hematological toxicity was observed | MTD ([4]; up to 450 mg/day, either schedule): has not yet been observed | hematological improvement ([5]; Cohort 2, 18 mg, individual patients): major hematological improvement; also recorded: minor hematological improvement | Efficacy ([5]; 12 mg): Possible | Efficacy ([5]; 18 mg): Possible | patients with hematological improvement ([5]; cohort 2 (18 mg)): three | patients with complete response (CR) ([5]; first 45 pts): Four | responders that were WT ([5]; human, in vivo): five | non-responding patients with ITD mutations with initial rapid clearing of peripheral blasts ([5]; intermittent dosing): Six of the 9 | IC50 (RS4-11 cell line): 1000 nM | ΔT [6]: 6 h | duration of steady state exposure ([7]; human): 24 h | plasma exposure versus dose ([7]; human): dose proportional | bioavailability in humans ([7]; human, po, 12 mg): good bioavailability | human bioavailability ([7]; 18 mg): good human bioavailability | AUC (in vivo): ~3.2 µM·h | AUC(0-t) (in vivo): 1790 ng·h/mL | half-life (clinical; 12 mg): ~67.2 h | AUC(0-t) (clinical; 12 mg): 757 ng·h/mL | half-life (clinical; 18 mg): 24 to 67.2 h | AUC(0-t) (clinical; 18 mg): 1380 ng·h/mL | SS Cp ([8]; Mouse, 1 mg/kg): 143 ng/mL | efficacious plasma levels over the MV4;11 IC50 ([8]; mice, efficacious dose 1 mg/kg): about 800 fold | duration of steady state exposure ([8]; mouse): 6 h | Cmax [9]: 11.2 ng/mL
